Results as given in ChEMBL document CHEMBL3804826, “MALT1 Inhibitors May Potentially Treat Lymphomas and Autoimmune Disorders” (ACS Med Chem Lett, 2016).

What was measured:
[1] = biological target: T1, Mucosa-associated lymphoid tissue lymphoma translocation protein 1 (Homo sapiens, UniProt Q9UDY8); test: Inhibition of MALT1 (unknown origin) expressed in human Jurkat Clone K22 29Q_H23 cells assessed as IL2 production preincubated for 30 mins followed by PMA stimulation for 5.5 hrs by luciferase reporter gene assay; type: cell-based
T1 sequence (Q9UDY8 whole entry): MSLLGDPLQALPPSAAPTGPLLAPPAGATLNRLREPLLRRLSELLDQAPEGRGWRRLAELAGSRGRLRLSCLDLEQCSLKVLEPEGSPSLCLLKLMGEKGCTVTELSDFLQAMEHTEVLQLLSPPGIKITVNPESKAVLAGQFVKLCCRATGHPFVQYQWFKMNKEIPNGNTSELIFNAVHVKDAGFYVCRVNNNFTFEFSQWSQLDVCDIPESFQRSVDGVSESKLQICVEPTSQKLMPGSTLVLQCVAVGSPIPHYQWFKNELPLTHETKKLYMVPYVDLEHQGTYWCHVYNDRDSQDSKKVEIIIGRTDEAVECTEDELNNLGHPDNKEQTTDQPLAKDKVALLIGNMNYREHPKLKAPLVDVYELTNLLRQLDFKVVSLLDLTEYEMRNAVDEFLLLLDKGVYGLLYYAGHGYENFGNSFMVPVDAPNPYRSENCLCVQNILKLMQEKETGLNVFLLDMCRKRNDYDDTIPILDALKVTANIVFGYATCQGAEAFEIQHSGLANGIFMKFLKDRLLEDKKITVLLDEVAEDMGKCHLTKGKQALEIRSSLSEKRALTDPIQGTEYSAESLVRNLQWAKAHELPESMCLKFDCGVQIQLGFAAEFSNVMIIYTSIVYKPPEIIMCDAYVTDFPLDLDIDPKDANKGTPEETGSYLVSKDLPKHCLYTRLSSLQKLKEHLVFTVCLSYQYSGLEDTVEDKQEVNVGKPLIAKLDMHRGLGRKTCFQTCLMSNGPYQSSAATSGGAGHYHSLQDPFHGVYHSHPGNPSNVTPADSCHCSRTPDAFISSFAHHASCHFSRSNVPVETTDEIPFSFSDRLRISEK

[2] = biological target: Baculoviral IAP repeat-containing protein 3/Mucosa-associated lymphoid tissue lymphoma translocation protein 1 (Homo sapiens, UniProt Q13489+Q9UDY8); test: Inhibition of cIAP2-MALT1 (unknown origin) expressed in HEK293 cells assessed as inhibition of NFkappaB signaling after 24 hrs by luciferase reporter gene assay; type: cell-based
Baculoviral IAP repeat-containing protein 3/Mucosa-associated lymphoid tissue lymphoma translocation protein 1, sequence (Q13489 whole entry, one chain of several): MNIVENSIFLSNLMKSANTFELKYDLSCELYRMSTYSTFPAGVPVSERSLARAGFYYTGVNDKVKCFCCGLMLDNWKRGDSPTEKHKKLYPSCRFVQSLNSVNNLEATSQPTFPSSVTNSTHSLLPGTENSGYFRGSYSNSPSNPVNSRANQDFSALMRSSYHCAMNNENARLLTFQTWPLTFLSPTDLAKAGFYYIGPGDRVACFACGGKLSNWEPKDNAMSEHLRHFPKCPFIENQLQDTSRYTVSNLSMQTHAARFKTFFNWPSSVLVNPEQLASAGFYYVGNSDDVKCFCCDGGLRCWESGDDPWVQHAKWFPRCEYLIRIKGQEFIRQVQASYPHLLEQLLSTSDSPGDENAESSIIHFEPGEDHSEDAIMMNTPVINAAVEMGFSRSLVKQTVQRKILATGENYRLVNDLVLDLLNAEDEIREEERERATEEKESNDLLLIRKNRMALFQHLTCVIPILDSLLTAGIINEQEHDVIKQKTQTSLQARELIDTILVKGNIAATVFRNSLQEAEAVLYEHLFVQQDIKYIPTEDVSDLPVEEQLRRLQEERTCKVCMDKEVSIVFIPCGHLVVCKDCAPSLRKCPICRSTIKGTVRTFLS

| IC50 [1] [nM] | IC50 [2] [nM] | Structure (SMILES) |
| --- | --- | --- |
| 248 | 54 | CC(C)c1c(NC(=O)Nc2cnc(N3CCCS3(=O)=O)c(C(F)(F)F)c2)cnc2cc(Cl)nn12 |
| 28 | 84 | COCC(c1c(NC(=O)Nc2cnc(-n3nccn3)c(Cl)c2)cnc2cc(Cl)nn12)C1CC1 (stereo unspecified) |
| 52 | 132 | CO[C@@H](C)c1c(NC(=O)Nc2cncc(C(F)(F)F)c2)cnc2cc(C)nn12 |
